Source: patent US9108950B2, “1-pyrazolyl-3-(4-((2-anilinopyrimidin-4-yl)oxy)napththalen-1-yl) ureas as p38 MAP kinase inhibitors” (Respivert Ltd., priority 2011, dated 2015)

What was measured:
[1] = test system: Cigarette Smoke Model; experiment: Cigarette smoke model; type: in vivo, A/J mice; details: 1.75 μg/mouse (35 μL, bid, i.n.)
Description: A/J mice (males, 5 weeks old) were exposed to cigarette smoke (4% cigarette smoke, diluted with air) for 30 min/day for 11 days using a Tobacco Smoke Inhalation Experiment System for small animals (Model SIS-CS; Sibata Scientific Technology, Tokyo, Japan). […] At 12 hr after the last dosing, each of the animals was anesthetized, the trachea cannulated and bronchoalveolar lavage fluid (BALF) was collected. The numbers of alveolar macrophages and neutrophils were determined by FACS analysis (EPICS® ALTRA II, Beckman Coulter, Inc., Fullerton, Calif., USA) using anti-mouse MOMA2 antibody (macrophage) or anti-mouse 7/4 antibody (neutrophil). BALF was centrifuged and the supernatant was collected. The level of keratinocyte chemoattractant (KC; CXCL1) in BALF was quantitated using a Quentikine® mouse KC ELISA kit (R&D systems, Inc., Minneapolis, Minn., USA).

[2] = test system: LPS-induced neutrophil accumulation; experiment: LPS-induced neutrophil accumulation in mice; type: in vivo, Balb/c mice; details: 1.75 μg/mouse
Description: […] At T=0, mice were placed into an exposure chamber and exposed to LPS (7.0 mL, 0.5 mg/mL solution in PBS) for 30 min). After a further 8 hr the animals were anesthetized, their tracheas cannulated and BALF extracted by infusing and then withdrawing from their lungs 1.0 mL of PBS via the tracheal catheter. Total and differential white cell counts in the BALF samples were measured using a Neubaur haemocytometer. Cytospin smears of the BALF samples were prepared by centrifugation at 200 rpm for 5 min at RT and stained using a DiffQuik stain system (Dade Behring). Cells were counted using oil immersion microscopy. Data for neutrophil numbers in BAL are shown as mean±S.E.M. (standard error of the mean). The percentage inhibition of neutrophil accumulation was calculated for each treatment relative to vehicle treatment.

[3] = test system: Differentiated U937 cells; experiment: Cell viability: MTT assay; type: cell-based, human; details: 1 μg/mL
Description: Differentiated U937 cells were pre-incubated with each test compound (final concentration 1 μg/mL or 10 μg/mL in 200 μL media indicated below) under two protocols: the first for 4 hr in 5% FCS RPMI1640 media and the second in 10% FCS RPMI1640 media for 24 h. The supernatant was replaced with new media (200 μL) and MTT stock solution (10 μL, 5 mg/mL) was added to each well. After incubation for 1 hr the media were removed, DMSO (200 μL) was added to each well and the plates were shaken lightly for 1 hr prior to reading the absorbance at 550 nm. The percentage loss of cell viability was calculated for each well relative to vehicle (0.5% DMSO) treatment. Consequently an apparent increase in cell viability for drug treatment relative to vehicle is tabulated as a negative percentage.

| SMILES | macrophage accumulation into airways [1] | neutrophil accumulation into airways [1] | inhibition of LPS-induced neutrophil accumulation [2] [%] | MTT Assay Cell viability in d-U937 Cells ([3]; 4 h) | MTT Assay Cell viability in d-U937 Cells ([3]; 24 h) |
| --- | --- | --- | --- | --- | --- |
| CCC(=O)O[C@]1(C(=O)SCF)[C@H](C)C[C@H]2[C@@H]3C[C@H](F)C4=CC(=O)C=C[C@]4(C)[C@@]3(F)[C@@H](O)C[C@@]21C [Fluticasone Propionate, fluticasone propionate, reference compound] | did not inhibit | did not inhibit | > 80 |  |  |
| COCC(=O)Nc1cc(Oc2ccc(NC(=O)Nc3cc(C(C)(C)C)nn3-c3ccc(C)cc3)c3ccccc23)ccn1 [Reference Compound, N-(4-(4-(3-(3-tert-butyl-1-p-tolyl-1H-pyrazol-5-yl)ureido)naphthalen-1-yloxy)pyridin-2-yl)-2-methoxyacetamide, reference compound] |  |  |  | −ve (−ve and +ve indicate the value is below and above respectively, the no significant effect threshold defined as 30% inhibition at 1 μg/mL at the time point indicated.) | +ve (−ve and +ve indicate the value is below and above respectively, the no significant effect threshold defined as 30% inhibition at 1 μg/mL at the time point indicated.) |
